Test: xn = mol fraction of the nth substance listed
Conditions: 101 kPa

OCCCO + CCCC[n+]1ccn(C)c1.F[B-](F)(F)F
speed of sound [m/s]
Conditions	x1 = 0.1026	x1 = 0.2072	x1 = 0.3172	x1 = 0.3943	x1 = 0.503	x1 = 0.6011	x1 = 0.7009	x1 = 0.8006	x1 = 0.8979	x1 = 1
298.15 K	1564.2	1563.5	1565.2	–	1574.2	1580.8	1590	–	1612.8	1628.8
303.15 K	–	1551.8	1553.4	1557.4	1562.4	1569	1578.2	1589.4	1601.1	1617.6
308.15 K	1540.8	1539.9	1541.5	1545.5	1550.6	1557.2	1566.5	1577.8	–	1606.2
313.15 K	1529.1	1528.2	–	–	–	1545.5	1554.8	1566.2	1578.1	1594.8
318.15 K	1517.6	1516.6	1518.1	1522.1	1527.1	–	–	1554.6	1566.6	1583.5
323.15 K	1506.2	1505.1	1506.5	–	1515.5	1522.2	1531.6	1543.1	–	1572.1

CCCC[n+]1ccn(C)c1.F[B-](F)(F)F + OCCCO
x2 = 0
Conditions	speed of sound [m/s]
298.15 K	1565.1
303.15 K	1553.2
308.15 K	1541.3
313.15 K	1529.7
318.15 K	1518.2
323.15 K	1506.8

CCCC[n+]1ccn(C)c1.F[B-](F)(F)F + CC(O)CO
x2 = 0
Conditions	speed of sound [m/s]
303.15 K	1552.9
318.15 K	1518
323.15 K	1506.6

CC(O)CO (stereo unspecified) + CCCC[n+]1ccn(C)c1.F[B-](F)(F)F
speed of sound [m/s]
Conditions	x1 = 0.1182	x1 = 0.2003	x1 = 0.3122	x1 = 0.4189	x1 = 0.5064	x1 = 0.6165	x1 = 0.695	x1 = 0.797	x1 = 0.8966	x1 = 1
298.15 K	–	–	–	1545.8	1541.1	1535.1	1530.5	1524.7	1518.5	1511
303.15 K	1548.1	1544.1	1538.9	–	1529	1522.8	–	1511.8	1505.3	1497.2
308.15 K	–	1532.3	–	1521.8	1516.9	1510.4	1505.3	1498.8	1491.8	1483.1
313.15 K	1524.6	1520.6	1515.2	1509.8	1504.7	–	1492.6	1485.7	–	1469
318.15 K	1513	1509	–	1497.9	1492.5	1485.5	1480	1472.7	–	1454.9
323.15 K	1501.6	1497.4	1491.8	1486.1	1480.5	–	1467.3	1459.6	1451.4	1440.7

— a compilation of properties of binary mixtures (doi:10.1016/j.molliq.2015.01.031)
